Laboratory results published in US20250011456A1, “ANTIBODIES AGAINST CD14 AND USES THEREOF” (Villanelle Life Science Inc, priority 2023, published 2025).
Where “and” joins values, the source holds several entries; their conditions need not be identical. Equal entries are not always repeated.

Key:
[1] = Mouse weight under the treatment regimens of Example 6 (PDX mice); settings: Cisplatin 4 mg/kg i.v. (C. Ex. 2), PDX mice 1-6
Protocol: For these experiments, eight (8) treatment groups for PDX mice were set up: control IgG group (C.Ex. 1), single cisplatin group (4 mg/kg; C.Ex. 2), single anti-CD14-IgG1 group (5 mg/kg; Ex. 1), single anti-CD14-IgG4 (5 mg/kg; Ex. 2), combined cisplatin and anti-CD14-IgG1 group (4 mg/kg+1.5 mg/kg; Ex. 3), combined cisplatin and anti-CD14-IgG4 group (4 mg/kg+1.5 mg/kg; Ex. 4), combined cisplatin and anti-CD14-IgG1 group (4 mg/kg+5 mg/kg; Ex. 5), and combined cisplatin and anti-CD14-IgG4 group (4 mg/kg+5 mg/kg; Ex. 6). […] When cisplatin was used in these experiments, the cisplatin was used at a dose of 4 mg/kg. “C.Ex.” refers to comparative examples and “Ex.” refers to examples of embodiments of the present disclosure. The control is a non-specific IgG1 having two identical heavy chains and two identical light chains. The non-specific IgG1 has no binding affinity to the antigen.
Drug administration on the PDX mice was performed intravenously. Drug administration was performed on days 0, 4, 7, 11, 14, 18, 21, 25, and 28. Measurements of length, width, volume, and weight were performed prior to the drug administration on day 0, 4, 7, 11, 14, 18, 21, 25, and 28. The tumors were present on the skin of the mice. A ruler was used to measure the length and the width. The tumor volume was calculated by volume=½(length×width^2). The weight of the mouse was measured by placing the mouse on a scale and weighing. Tumor weight was measured by removing the tumor from the mouse and weighing on a scale.

[2] = test system: CD14 positive recurrent bladder cancer patient-derived xenograft (PDX); experiment: Anti-CD14 IgG1/IgG4 with or without cisplatin, tumor treatment in PDX mice (tumor length, width, volume, tumor weight; Example 6); assay type: in vivo; settings: for Tumor Length / Tumor Volume / Tumor Width: Cisplatin 4 mg/kg i.v. (C. Ex. 2), PDX mice 1-6
Excerpt: After removing the primary tumor tissue from the patient, the tissue was temporarily placed in a complete culture medium containing RPMI1640 (Gibco Roswell Park Memorial Institute 1640 Media)+PS (penicillin and streptomycin)+10% FBS (Fetal bovine serum). The tissue was then transported to a sterile operating room within an SPF-grade (Specific Pathogen Free) animal facility. The tumor tissue was cut to an appropriate size (5 millimeters (mm) in diameter). Severely immunodeficient NSG (NOD scid gamma mouse) mice were anesthetized using an isoflurane respirator. The tumor was transplanted subcutaneously into the right rib area through surgery. When the tumor volume reached 1 cm^3, it was passaged following the same procedure, and after expanding for three generations, the tumor became stable for use in formal experiments. During the experiment, passaging and expansion were performed as needed. When the tumor volume reached 100 mm^3, the mice were divided into groups according to the experimental requirements and treated with drugs.
The IgG4 tested is the original version of Atibuclimab.
Drug administration on the PDX mice was performed intravenously.

For `N.N.[Cl][Pt][Cl]` [Cisplatin, cisplatin, reference compound], which “Mouse Weight” value ([1]; Day 0) is on record?
The value was 20.24 g and 20.99 g and 19.91 g and 20.78 g and 20.29 g and 20.61 g.

What about the “Mouse Weight” value ([1]; Day 4) of the same molecule?
The value was 20.91 g and 20.32 g and 20.42 g and 20.81 g and 20.93 g and 19.35 g.

What about the “Mouse Weight” value ([1]; Day 7) of the same molecule?
Its value is 19.77 g and 20.8 g and 21.42 g and 19.96 g and 20.93 g and 20.38 g.

And the “Mouse Weight” value ([1]; Day 11)?
Its value is 21.17 g and 21.76 g and 20.58 g and 20.08 g and 21.59 g and 19.94 g.

And the “Mouse Weight” value ([1]; Day 14)?
The value was 21.09 g and 21.3 g and 21.38 g and 21.68 g and 20.56 g and 22.59 g.

And the “Mouse Weight” value ([1]; Day 18)?
Its value is 21.17 g and 21.02 g and 21.25 g and 21.23 g and 21.03 g and 21.58 g.

And the “Mouse Weight” value ([1]; Day 21)?
The value was 22.54 g and 22.44 g and 22.47 g and 22.85 g and 22.23 g and 22.65 g.

What about the “Mouse Weight” value ([1]; Day 25) of the same molecule?
Its value is 25.05 g and 24.06 g and 22.26 g and 23.7 g and 25.49 g and 22.66 g.

What about the “Mouse Weight” value ([1]; Day 28) of the same molecule?
The value was 24.11 g and 25.57 g and 24.32 g and 23.69 g and 24.47 g and 25.73 g.

And the “Tumor Length” value ([2]; Day 0)?
The value was 6.73 mm and 6.19 mm and 6.27 mm and 6.28 mm and 7.76 mm and 7.8 mm.

And the “Tumor Volume” value ([2]; Day 0)?
The value was 60.66 mm^3 and 92.72 mm^3 and 86.02 mm^3 and 73.84 mm^3 and 94.74 mm^3 and 109.53 mm^3.

What about the “Tumor Width” value ([2]; Day 0) of the same molecule?
The value was 4.15 mm and 5.35 mm and 5.12 mm and 4.74 mm and 4.83 mm and 5.18 mm.

What about the “Tumor Length” value ([2]; Day 4) of the same molecule?
The value was 6.66 mm and 6.27 mm and 5.94 mm and 5.93 mm and 6.62 mm and 5.98 mm.

What about the “Tumor Volume” value ([2]; Day 4) of the same molecule?
Its value is 87.83 mm^3 and 103.64 mm^3 and 106.38 mm^3 and 105.48 mm^3 and 165.90 mm^3 and 96.75 mm^3.

And the “Tumor Width” value ([2]; Day 4)?
The value was 5.02 mm and 5.62 mm and 5.85 mm and 5.83 mm and 6.92 mm and 5.56 mm.

And the “Tumor Length” value ([2]; Day 7)?
Its value is 6.33 mm and 6.99 mm and 6.68 mm and 7.3 mm and 7.66 mm and 7.34 mm.

And the “Tumor Volume” value ([2]; Day 7)?
The value was 97.32 mm^3 and 111.46 mm^3 and 139.19 mm^3 and 144.96 mm^3 and 184.82 mm^3 and 147.18 mm^3.

What about the “Tumor Width” value ([2]; Day 7) of the same molecule?
The value was 5.42 mm and 5.52 mm and 6.31 mm and 6.16 mm and 6.79 mm and 6.19 mm.

What about the “Tumor Length” value ([2]; Day 11) of the same molecule?
Its value is 8.7 mm and 6.68 mm and 7.84 mm and 8.41 mm and 7.57 mm and 7.94 mm.

And the “Tumor Width” value ([2]; Day 11)?
The value was 6.55 mm and 6.18 mm and 6.08 mm and 7.57 mm and 7.19 mm and 5.43 mm.

And the “Tumor Length” value ([2]; Day 14)?
The value was 7.16 mm and 8.08 mm and 7.68 mm and 8.19 mm and 9.8 mm and 9.87 mm.

And the “Tumor Volume” value ([2]; Day 14)?
The value was 191.56 mm^3 and 209.57 mm^3 and 206.05 mm^3 and 280.52 mm^3 and 299.36 mm^3 and 256.73 mm^3.

What about the “Tumor Width” value ([2]; Day 14) of the same molecule?
The value was 7.15 mm and 7.04 mm and 7.16 mm and 8.09 mm and 7.64 mm and 7.05 mm.

And the “Tumor Length” value ([2]; Day 18)?
The value was 9.5 mm and 10.13 mm and 8.93 mm and 9.14 mm and 8.11 mm and 9.96 mm.

And the “Tumor Volume” value ([2]; Day 18)?
Its value is 359.20 mm^3 and 359.95 mm^3 and 306.62 mm^3 and 367.06 mm^3 and 235.57 mm^3 and 353.91 mm^3.

And the “Tumor Width” value ([2]; Day 18)?
The value was 8.5 mm and 8.24 mm and 8.1 mm and 8.76 mm and 7.45 mm.

And the “Tumor Length” value ([2]; Day 21)?
The value was 9.64 mm and 9.79 mm and 9.77 mm and 10.69 mm and 9.27 mm and 9.57 mm.

And the “Tumor Volume” value ([2]; Day 21)?
Its value is 461.07 mm^3 and 334.49 mm^3 and 398.65 mm^3 and 549.42 mm^3 and 378.25 mm^3 and 399.39 mm^3.

And the “Tumor Width” value ([2]; Day 21)?
The value was 9.56 mm and 8.08 mm and 8.83 mm and 9.91 mm and 8.93 mm.

And the “Tumor Length” value ([2]; Day 25)?
Its value is 10.14 mm and 11.63 mm and 10.89 mm and 10.35 mm and 10.8 mm and 9.29 mm.

What about the “Tumor Volume” value ([2]; Day 25) of the same molecule?
The value was 447.20 mm^3 and 648.21 mm^3 and 545.11 mm^3 and 447.56 mm^3 and 545.04 mm^3 and 354.58 mm^3.

What about the “Tumor Width” value ([2]; Day 25) of the same molecule?
Its value is 9.18 mm and 10.32 mm and 9.78 mm and 9.09 mm and 9.82 mm and 8.54 mm.

And the “Tumor Length” value ([2]; Day 28)?
The value was 10.94 mm and 11.95 mm and 11.36 mm and 9.95 mm and 11.27 mm and 11.26 mm.

And the “Tumor Volume” value ([2]; Day 28)?
The value was 472.03 mm^3 and 644.29 mm^3 and 617.31 mm^3 and 399.59 mm^3 and 624.50 mm^3 and 680.98 mm^3.

What about the “Tumor Width” value ([2]; Day 28) of the same molecule?
The value was 9.08 mm and 10.15 mm and 10.19 mm and 8.76 mm and 10.29 mm and 10.75 mm.

What about the “Tumor weight after 28 days” value ([2]; Cisplatin (4 mg/kg), C. Ex. 2, per mouse 1-6) of the same molecule?
Its value is 0.556 grams and 0.459 grams and 0.538 grams and 0.669 grams and 0.566 grams and 0.419 grams.

And the tumor suppression rate ([2]; single cisplatin 4 mg/kg (C.Ex. 2), after 28 days, compared to the control group)?
The tumor suppression rate was “about 50%”.
